Results: patent US20250197864A1, “LNCRNA TRANSCRIPTS IN MELANOMAGENESIS” (The Regents of the University of California, priority 2021, published 2025)

Tested on: gene expression in D04 melanoma cells
Test: RNA-Seq differential expression analysis (DESeq2)
Assay type: cell-based, human
Procedure: Total RNA was isolated using the RNeasy mini Kit (QIAGEN) following the manufacturer's protocol. Quality check for extracted RNA was done using 2100 Bioanalyzer (Agilent Technologies, USA) or Tapestation System (Agilent Technologies, USA). […] For samples used for identification of MAPK-responsive lncRNAs, paired-end, 101-bp sequencing was performed by Centrillion Genomic Services (Centrillion Biosciences, USA) on an Illumina HiSeq 2000. For DE gene analysis of ASO-transfected D04 samples, paired-end, 2×150-bp sequencing was performed by Genewiz (USA) on a Illumina HiSeq.
Sequence reads were aligned to the human genome (hg19) using TopHat (Version 2.0.11).
Differential expression (DE) analysis was done using DESeq2. Differentially expressed genes were defined by more than 1.5-fold changes (log 2 >0.58 or <−0.58) in expression with FDR<0.05. GO term analysis was done using DAVID Functional Annotation Clustering analysis.
To examine the biomolecular changes upon TRASH-inhibition in melanoma, D04 cells were treated with TRASH-ASOs (SEQ ID NO:15) and Control-ASOs and RNA was extracted and used for RNA-Seq. […] These GO terms consisted of genes encoding growth factors, tyrosine kinases, G protein coupled receptor subunits, and collagen subunits. Scatter plot diagram showing differential gene expression after TRASH-ASO treatment compared to Control-ASO treatment. (cut-off for significance was adjusted p-value <0.05). Data was obtained from RNA-Seq of D04 melanoma cells, treatment period was three days. (FIG. 5c)

Question: Which “log2FoldChange AC010327.3” value (ENSG00000267577, up-regulated list) does the source give for “GACTGGAGATAATTAA (gapmer, pattern not given here) [SEQ ID NO: 15, GapmeR ASO targeting AC004540.4 (TRASH), exon region of both isoforms; used for in vitro experiments]” here?
Answer: 1.04

Question: And the “log2FoldChange CARD8-AS1” value (ENSG00000268001, up-regulated list)?
Answer: 0.7573

Question: And the “log2FoldChange AC005261.3” value (ENSG00000268713, up-regulated list)?
Answer: 0.7391

Question: What about the “log2FoldChange AL513477.1” value (ENSG00000269896, up-regulated list) of the same sequence?
Answer: 1.066

Question: What about the “log2FoldChange AL606834.1” value (ENSG00000269906, up-regulated list) of the same sequence?
Answer: 0.6043

Question: What about the “log2FoldChange ZNF559-ZNF177” value (ENSG00000270011, up-regulated list) of the same sequence?
Answer: 0.8965

Question: What about the “log2FoldChange AC112220.2” value (ENSG00000271020, up-regulated list) of the same sequence?
Answer: 0.8814

Question: And the “log2FoldChange AC112220.4” value (ENSG00000271643, up-regulated list)?
Answer: 0.8013

Question: What about the “log2FoldChange AC004890.3” value (ENSG00000271664, up-regulated list) of the same sequence?
Answer: 0.9879

Question: What about the “log2FoldChange AL365181.3” value (ENSG00000272405, up-regulated list) of the same sequence?
Answer: 1.112

Question: What about the “log2FoldChange AL365203.2” value (ENSG00000273038, up-regulated list) of the same sequence?
Answer: 0.6423

Question: And the “log2FoldChange AC037198.1” value (ENSG00000276107, up-regulated list)?
Answer: 0.6896

Question: And the “log2FoldChange AC245041.2” value (ENSG00000276850, up-regulated list)?
Answer: 1.06

Question: What about the “log2FoldChange ENSG00000279184 (Gene.name NA)” value (ENSG00000279184, up-regulated list) of the same sequence?
Answer: 0.592

Question: And the “log2FoldChange AC005261.5” value (ENSG00000279541, up-regulated list)?
Answer: 0.6302

Question: What about the “log2FoldChange AC104581.4” value (ENSG00000280046, up-regulated list) of the same sequence?
Answer: 0.8564

Question: What about the “log2FoldChange UCKL1-AS1” value (ENSG00000280213, up-regulated list) of the same sequence?
Answer: 0.6201

Question: And the “log2FoldChange LINC01173” value (ENSG00000280744, up-regulated list)?
Answer: 0.9254

Question: What about the “log2FoldChange AC139493.2” value (ENSG00000283235, up-regulated list) of the same sequence?
Answer: 0.8882

Question: And the log2FoldChange (EPHA3 (ENSG00000044524))?
Answer: −0.647

Question: And the log2FoldChange (ETS2 (ENSG00000157557))?
Answer: 1.279

Question: And the log2FoldChange (EVI2A (ENSG00000126860))?
Answer: 1.514

Question: What about the log2FoldChange (EXOC3L2 (ENSG00000283632)) of the same sequence?
Answer: −0.6947

Question: And the log2FoldChange (FAM129A (ENSG00000135842))?
Answer: −0.6591

Question: And the log2FoldChange (FAM172BP (ENSG00000175841))?
Answer: 2.273

Question: And the log2FoldChange (FAM180A (ENSG00000189320))?
Answer: 2.047

Question: What about the log2FoldChange (FAM198B-AS1 (ENSG00000248429)) of the same sequence?
Answer: −0.6307

Question: And the log2FoldChange (FBXO2 (ENSG00000116661))?
Answer: −0.638

Question: And the log2FoldChange (FBXO9 (ENSG00000112146))?
Answer: −0.5825

Question: And the log2FoldChange (FBXO40 (ENSG00000163833))?
Answer: 1.589

Question: What about the log2FoldChange (FGF1 (ENSG00000113578)) of the same sequence?
Answer: −0.5817

Question: What about the log2FoldChange (FHDC1 (ENSG00000137460)) of the same sequence?
Answer: −0.7072

Question: What about the log2FoldChange (FOSB (ENSG00000125740)) of the same sequence?
Answer: 2.191

Question: And the log2FoldChange (FRK (ENSG00000111816))?
Answer: −0.6911

Question: And the log2FoldChange (FRRS1 (ENSG00000156869))?
Answer: −0.5906

Question: What about the log2FoldChange (FYN (ENSG00000010810)) of the same sequence?
Answer: −0.6273

Question: What about the log2FoldChange (GABRA3 (ENSG00000011677)) of the same sequence?
Answer: −0.5841

Question: What about the log2FoldChange (GAPDHP33 (ENSG00000240244)) of the same sequence?
Answer: 1.514

Question: And the log2FoldChange (GAREM1 (ENSG00000141441))?
Answer: −0.6261

Question: And the log2FoldChange (GAS1 (ENSG00000180447))?
Answer: −0.6542

Question: And the log2FoldChange (GAS7 (ENSG00000007237))?
Answer: −0.5864

Question: And the log2FoldChange (GGT5 (ENSG00000099998))?
Answer: −0.6741

Question: What about the log2FoldChange (GNG2 (ENSG00000186469)) of the same sequence?
Answer: −0.6003

Question: What about the log2FoldChange (GNGT2 (ENSG00000167083)) of the same sequence?
Answer: 1.241

Question: What about the log2FoldChange (GPR162 (ENSG00000250510)) of the same sequence?
Answer: −0.5935

Question: What about the log2FoldChange (GPRIN3 (ENSG00000185477)) of the same sequence?
Answer: −0.66

Question: And the log2FoldChange (GSG1 (ENSG00000111305))?
Answer: 2.332

Question: What about the log2FoldChange (H2BFWT (ENSG00000123569)) of the same sequence?
Answer: 2.336

Question: And the log2FoldChange (HDAC2-AS2 (ENSG00000228624))?
Answer: 1.256

Question: And the log2FoldChange (HDAC4 (ENSG00000068024))?
Answer: −0.5923

Question: And the log2FoldChange (HEY1 (ENSG00000164683))?
Answer: −0.6645

Question: And the log2FoldChange (HHIPL2 (ENSG00000143512))?
Answer: −0.6841

Question: What about the log2FoldChange (HID1 (ENSG00000167861)) of the same sequence?
Answer: 1.325

Question: What about the log2FoldChange (HLA-DMA (ENSG00000204257)) of the same sequence?
Answer: −0.582

Question: And the log2FoldChange (HLA-DMB (ENSG00000242574))?
Answer: −0.6646

Question: What about the log2FoldChange (HLA-DPB1 (ENSG00000223865)) of the same sequence?
Answer: −0.696

Question: What about the log2FoldChange (HLA-DRA (ENSG00000204287)) of the same sequence?
Answer: −0.641

Question: And the log2FoldChange (HLA-V (ENSG00000181126))?
Answer: 1.398

Question: And the log2FoldChange (HS6ST2 (ENSG00000171004))?
Answer: −0.588

Question: And the log2FoldChange (HSD3B1 (ENSG00000203857))?
Answer: −0.6356

Question: What about the log2FoldChange (HSPA2 (ENSG00000126803)) of the same sequence?
Answer: −0.6741

Question: What about the log2FoldChange (IFI27 (ENSG00000165949)) of the same sequence?
Answer: −0.6194

Question: And the log2FoldChange (IFI27L1 (ENSG00000165948))?
Answer: −0.5945

Question: What about the log2FoldChange (IGFBP5 (ENSG00000115461)) of the same sequence?
Answer: −0.631

Question: What about the log2FoldChange (IGSF11 (ENSG00000144847)) of the same sequence?
Answer: −0.5994

Question: What about the log2FoldChange (IL24 (ENSG00000162892)) of the same sequence?
Answer: 2.412

Question: And the log2FoldChange (IMMP2L (ENSG00000184903))?
Answer: −0.6662

Question: What about the log2FoldChange (ITGB2 (ENSG00000160255)) of the same sequence?
Answer: 1.646

Question: And the log2FoldChange (KCNK1 (ENSG00000135750))?
Answer: 4.668

Question: And the log2FoldChange (KCNQ5 (ENSG00000185760))?
Answer: −0.6919

Question: And the log2FoldChange (KIAA0319L (ENSG00000142687))?
Answer: −0.5992

Question: What about the log2FoldChange (KIF1A (ENSG00000130294)) of the same sequence?
Answer: 6.604

Question: And the log2FoldChange (KIRREL1 (ENSG00000183853))?
Answer: −0.6846

Question: What about the log2FoldChange (KISS1 (ENSG00000170498)) of the same sequence?
Answer: 1.679

Question: What about the log2FoldChange (KITLG (ENSG00000049130)) of the same sequence?
Answer: −0.5925

Question: What about the log2FoldChange (KLK2 (ENSG00000167751)) of the same sequence?
Answer: 2.321

Question: And the log2FoldChange (KRT15 (ENSG00000171346))?
Answer: 1.605

Question: What about the log2FoldChange (KRT34 (ENSG00000131737)) of the same sequence?
Answer: 3.32

Question: What about the log2FoldChange (KRT73-AS1 (ENSG00000257495)) of the same sequence?
Answer: 2.888

Question: And the log2FoldChange (KRT75 (ENSG00000170454))?
Answer: 1.915

Question: What about the log2FoldChange (LBH (ENSG00000213626)) of the same sequence?
Answer: −0.6972

Question: And the log2FoldChange (LCK (ENSG00000182866))?
Answer: 1.307

Question: And the log2FoldChange (LCN2 (ENSG00000148346))?
Answer: 1.647

Question: What about the log2FoldChange (LDHD (ENSG00000166816)) of the same sequence?
Answer: 1.623

Question: And the log2FoldChange (LDLR (ENSG00000130164))?
Answer: −0.588

Question: And the log2FoldChange (LIFR (ENSG00000113594))?
Answer: −0.5862

Question: And the log2FoldChange (LINC00520 (ENSG00000258791))?
Answer: 2.38
